This passage reports Emax and EC50 results from patent publication US9926264B2, “Phenylcarbamate derivatives as formyl peptide receptor modulators” (Allergan, Inc., priority 2013, dated 2018).

This experiment has as its target T1, FPR2 (Homo sapiens, UniProt P25090).
T1 construct: expressed in transfected cells; host or cells: CHO-Gα16 cells
T1 sequence (P25090 1-351): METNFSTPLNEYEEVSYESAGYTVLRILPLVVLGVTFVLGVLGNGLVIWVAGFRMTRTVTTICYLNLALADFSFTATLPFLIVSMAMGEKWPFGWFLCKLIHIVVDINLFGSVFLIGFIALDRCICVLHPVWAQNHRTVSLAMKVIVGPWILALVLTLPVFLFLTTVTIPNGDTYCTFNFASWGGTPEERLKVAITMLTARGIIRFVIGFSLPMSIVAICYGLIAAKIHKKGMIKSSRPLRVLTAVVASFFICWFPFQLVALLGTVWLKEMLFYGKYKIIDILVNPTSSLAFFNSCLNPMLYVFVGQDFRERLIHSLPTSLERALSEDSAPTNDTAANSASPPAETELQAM
The experiment is described as follows: compound-induced calcium activity on FLIPR Tetra in CHO-Gα16 cells stably expressing FPR2. In kind it is cell-based. Conditions: for Emax: efficacy value in brackets after EC50, read-out: FPR2 Gα16-CHO (% eff); for pEC50: tested 0.61 to 10,000 nM. On the procedure:
CHO-Gα16 cells stably expressing FPR2 were cultured in (F12, 10% FBS, 1% PSA, 400 μg/ml geneticin and 50 μg/ml hygromycin) and HEK-Gqi5 cells stable expressing FPR1 were cultured in (DMEM high glucose, 10% FBS, 1% PSA, 400 μg/ml geneticin and 50 μg/ml hygromycin). In general, the day before the experiment, 18,000 cells/well were plated in a 384-well clear bottom poly-D-lysine coated plate. The following day the screening compound-induced calcium activity was assayed on the FLIPR^Tetra. The drug plates were prepared in 384-well microplates using the EP3 and the MultiPROBE robotic liquid handling systems. Compounds were tested at concentrations ranging from 0.61 to 10,000 nM. Results are expressed as EC50 (nM) and % efficacy values.

pEC50: −log10 of the molar value.

Take `CCCN(CC(=O)OC(C)(C)C)C(=O)[C@H](CC(C)C)OC(=O)Nc1ccc(C(F)(F)F)cc1` [Compound 29, tert-Butyl [{(2S)-4-methyl-2-[({[4-(trifluoromethyl)phenyl]amino}carbonyl)oxy]pentanoyl}(propyl)amino]acetate]: the Emax was found to be 101% and the pEC50 – broadly, the negative decadic logarithm of the EC50, by convention in mol/L – was 7.94.
For `CC(C)C[C@H](OC(=O)Nc1ccc(C(F)(F)F)cc1)C(=O)N(CC(=O)OC(C)(C)C)C(C)C` [Compound 30, tert-Butyl (Isopropyl{(2S)-4-methyl-2-[({[4-(trifluoromethyl)phenyl]amino}carbonyl)oxy]pentanoyl}amino)acetate] the same measures were 76% and 6.52.
Taken in the same sequence, the figures for `CCN(Cc1nnn[nH]1)C(=O)[C@H](CC(C)C)OC(=O)Nc1ccc(Br)cc1` [Compound 31, (1S)-1-{[ethyl(1H-tetrazol-5-ylmethyl)amino]carbonyl}-3-methylbutyl (4-bromophenyl)carbamate] were 95% and 9.52.
For `CCN(Cc1nnn[nH]1)C(=O)[C@H](CC(C)C)OC(=O)Nc1ccc(C(F)(F)F)cc1` [Compound 32, (1S)-1-{[ethyl(1H-tetrazol-5-ylmethyl)amino]carbonyl}-3-methylbutyl [4-(trifluoromethyl)phenyl]carbamate] the same measures were 100% and 9.18.
Turning to `CC(C)C[C@H](OC(=O)Nc1ccc(Br)cc1)C(=O)NCCNC(=O)OC(C)(C)C` [Compound 33, (1S)-1-[({2-[(tert-butoxycarbonyl)amino]ethyl}amino)carbonyl]-3-methylbutyl (4-bromophenyl)carbamate], the Emax was 103% and the pEC50 was 6.40.
Taken in the same sequence, the figures for `CC(C)(C)OC(=O)CNC(=O)[C@H](Cc1ccccc1)OC(=O)Nc1ccc(Br)cc1` [Compound 34, tert-Butyl {[(2S)-2-({[(4-bromophenyl)amino]carbonyl}oxy)-3-phenylpropanoyl]amino}acetate] were 103% and 6.97.
Taken in the same sequence, the figures for `O=C(Nc1ccc(Br)cc1)O[C@@H](Cc1ccccc1)C(=O)NCc1nnn[nH]1` [Compound 35, (1S)-1-benzyl-2-oxo-2-[(1H-tetrazol-5-ylmethyl)amino]ethyl (4-bromophenyl)carbamate] were 103% and 9.08.
Regarding `CN(CC(=O)OC(C)(C)C)C(=O)[C@H](Cc1ccccc1)OC(=O)Nc1ccc(Br)cc1` [Compound 36, tert-Butyl {[(2S)-2-({[(4-bromophenyl)amino]carbonyl}oxy)-3-phenylpropanoyl](methyl)amino}acetate], the Emax was determined as 105% and the negative-log EC50 (pEC50) is 7.93.
In the case of `CCCN(CC(=O)O)C(=O)[C@H](CC(C)C)OC(=O)Nc1ccc(C(F)(F)F)cc1` [Compound 37, [{(2S)-4-methyl-2-[({[4-(trifluoromethyl)phenyl]amino}carbonyl)oxy]pentanoyl}(propyl)amino]acetic acid], the Emax came to 102% and the pEC50 is 8.92.
For `CC(C)C[C@H](OC(=O)Nc1ccc(C(F)(F)F)cc1)C(=O)N(CC(=O)O)C(C)C` [Compound 38, (Isopropyl{(2S)-4-methyl-2-[({[4-(trifluoromethyl)phenyl]amino}carbonyl)oxy]pentanoyl}amino)acetic acid] the same measures were 107% and 9.18.
For `CC(C)C[C@H](OC(=O)Nc1ccc(Br)cc1)C(=O)NCCN` [Compound 39, (1S)-1-{[(2-aminoethyl)amino]carbonyl}-3-methylbutyl (4-bromophenyl) carbamate] the same measures were 89% and 7.11.
As for `O=C(O)CNC(=O)[C@H](Cc1ccccc1)OC(=O)Nc1ccc(Br)cc1` [Compound 40, {[(2S)-2-({[(4-bromophenyl)amino]carbonyl}oxy)-3-phenylpropanoyl]amino}acetic acid], the Emax came to 95% and the pEC50 was 8.89.
With `CN(CC(=O)O)C(=O)[C@H](Cc1ccccc1)OC(=O)Nc1ccc(Br)cc1` [Compound 41, {[(2S)-2-({[(4-Bromophenyl)amino]carbonyl}oxy)-3-phenylpropanoyl](methyl)amino}acetic acid], the Emax is 98% and the pEC50 was 9.39.
Taken in the same sequence, the figures for `CC(C)C[C@H](OC(=O)Nc1ccc(Br)cc1)C(=O)NCCNS(=O)(=O)N(C)C` [Compound 42, (1S)-1-{[(2-{[(Dimethylamino)sulfonyl]amino}ethyl)amino]carbonyl}-3-methylbutyl (4-bromophenyl)carbamate] were 99% and 6.90.
For `CC(C)C[C@H](OC(=O)Nc1ccc(C(F)(F)F)cc1)C(=O)OC(C)(C)C` [Intermediate 2, tert-Butyl (2S)-4-Methyl-2-({[4-(trifluoromethyl)phenyl]carbamoyl}oxy)pentanoate] the same measures were 56% and 5.00.
For `CC(C)(C)OC(=O)[C@H](Cc1ccccc1)OC(=O)Nc1ccc(Br)cc1` [Intermediate 2a, tert-Butyl (2S)-2-({[(4-bromophenyl)amino]carbonyl}oxy)-3-phenyl propanoate] the same measures were 55% and 5.66.
With `CC(C)C[C@H](OC(=O)Nc1ccc(Br)cc1)C(=O)O` [Intermediate 3, (2S)-2-{[(4-Bromophenyl)carbamoyl]oxy}-4-methylpentanoic acid], the Emax came out at 85% and the pEC50 was 8.07.
For `CC(C)C[C@H](OC(=O)Nc1ccc(C(F)(F)F)cc1)C(=O)O` [Intermediate 4, (2S)-4-Methyl-2-({[4-(Trifluoromethyl)phenyl]carbamoyl}oxy)pentanoic acid] the same measures were 88% and 7.61.
For `O=C(Nc1ccc(Br)cc1)O[C@@H](Cc1ccccc1)C(=O)O` [Intermediate 4a, (2S)-2-({[(4-bromophenyl)amino]carbonyl}oxy)-3-phenylpropanoic acid] the same measures were 103% and 8.84.
